Experimental data from patent US20230218555A1, “CREATINE, ITS DERIVATIVES, COMPOSITIONS AND METHODS OF USE THEREOF” (priority 2021, published 2023).
“Also recorded” adds a separate entry of the source.

Columns and labels:
Assay type in all cases: in vivo, human
[1] = system: Aphthous Ulcers (Canker Sores); experiment: Example 20: aphthous ulcers (canker sores), topical
Excerpt: Two eroded painful sites 2-3 mm in diameter on the right side of the tongue worsened over 2 days in a subject. At bedtime of the 2nd day, the subject topically applied C15 3% in water: propylene glycol 8:2.

[2] = system: muscular pain of upper right back, dystonia; experiment: Example 23: pain of dystonia, local subcutaneous injections
Method: Five sites of the upper back were injected with 0.3 ml C15 in aqueous solution using insulin syringes with 30G short needles. […] At that time the injections were repeated just before […] departed on a trip to Europe.

[3] = system: bunion on right foot; experiment: Example 21: subcutaneous injection over bunion; settings: weekly subcutaneous injections of 1.5% aqueous solution
Excerpt: A subject presented with bunion on right foot that has been enlarging over the past decade. […] Weekly injections will be continued for another month or two to determine whether complete resolution will be achieved.

[4] = system: eczema; experiment: Examples 30 and 37: itch and eczema
Excerpt: subject two, with a 25 year history of eczema, was provided a topical formulation of 6% C15 in a lotion made up of hydrophilic ointment USP 35% diluted with 65% water. […] They emphasized, however, that their eczema worsens in the autumn and winter, so their final judgment needs to be delayed from the summer season to several months later.
subject four with a 14 year history of eczema was provided the same lotion.
subject three, with a history of eczema for 35 years, was provided the same solution. […] They have expressed great gratitude and hopes that the same beneficial results will persist during the autumn and winter seasons.
subject two, with a 25 year history of eczema, was provided a topical formulation of 6% C15 in a lotion made up of hydrophilic ointment USP 35% diluted with 65% water. After ten days of topical applications, itch was relieved for intervals of 1.5 hour up to 24 hours. […] Sites of itch were treated with prompt application of the above lotion which completely aborted further development.
subject four with a 14 year history of eczema was provided the same lotion. […] Patient has moved from the area and has been lost to long term follow up.
subject three, with a history of eczema for 35 years, was provided the same formulation. […] They expressed great gratitude and hoped that the same beneficial results would persist during the autumn and winter months.
They reported: “I use it sparingly. If I feel any itch or see a little patch I put it on and it's gone like the next day. […] It's so great. It's miraculous!”

[5] = 6% lotion as needed, person three

`CCOC(=O)CN(C)C(N)=NC(C)=O` [Compound C15, N-acetyl ethyl creatinate] was tested, and the “extent of pain relief” value ([1]; 3% in water: propylene glycol 8:2, topical to tongue) was “Complete pain relief”, the “clinical sign of lesions next day” value ([1]; 3% topical) was “No clinical sign of the lesions could be detected next day” and the return of pain ([1]; 3% topical) was “remained pain free throughout the night and did not return”. For the same molecule, the “time to pain relief” value ([1]; 3% topical) was “within less than a minute”, the duration of relief ([2]; first injections) was 2 weeks and the “extent of pain relief” value ([2]; five sites of upper back injected with 0.3 ml aqueous solution) was “Complete relief of pain”. For the same molecule, the “time to pain relief” value ([2]; five sites, 0.3 ml) was “within the next hour”, the “duration of relief after repeated injections” value ([2]; repeated injections) was “lasting beyond two week period” and the change of bunion [3] was “distinct resolution in mass”. For the same molecule, the “itch after 4 days of application” value [4, 5] was “itch was now negligible; also recorded: itch became negligible”, the “signs of eczema on skin” value [4, 5] was “skin was nearly entirely free of signs of eczema; also recorded: skin became nearly entirely free of signs of eczema” and the “extent of itch relief” value ([4]; 6% lotion, 2 weeks, person four) was “itch was relieved completely”. For the same molecule, the “duration of itch relief after a single application” value ([4]; 6% lotion, person four) was 24 to 48 h, the “eczema after ten days” value ([4]; 6% lotion, person two) was “felt that their eczema was undergoing resolution” and the “eczema at the end of the following February” value ([4]; 6% lotion, person two) was “eczema was still under almost complete resolution”. For the same molecule, the “skin at the end of February” value ([4]; person three) was “their skin has remained clear”.
